Experimental data taken from publication PMC12289626, “Aloin protects against UVB-induced apoptosis by modulating integrated signaling pathways” (Frontiers in Pharmacology, 2025).

Key:
p38α = biological target: T1, p38α (Homo sapiens, UniProt Q16539); assay: ADP-Glo kinase assay with Promega p38α Kinase Enzyme System; assay type: biochemical
T1 construct: gene MAPK14

JNK1 = biological target: T2, JNK1 (Homo sapiens, UniProt P45983); assay: ADP-Glo kinase assay with Promega JNK1 Kinase Enzyme System; assay type: biochemical
T2 construct: gene MAPK8
T2 sequence (P45983 whole entry): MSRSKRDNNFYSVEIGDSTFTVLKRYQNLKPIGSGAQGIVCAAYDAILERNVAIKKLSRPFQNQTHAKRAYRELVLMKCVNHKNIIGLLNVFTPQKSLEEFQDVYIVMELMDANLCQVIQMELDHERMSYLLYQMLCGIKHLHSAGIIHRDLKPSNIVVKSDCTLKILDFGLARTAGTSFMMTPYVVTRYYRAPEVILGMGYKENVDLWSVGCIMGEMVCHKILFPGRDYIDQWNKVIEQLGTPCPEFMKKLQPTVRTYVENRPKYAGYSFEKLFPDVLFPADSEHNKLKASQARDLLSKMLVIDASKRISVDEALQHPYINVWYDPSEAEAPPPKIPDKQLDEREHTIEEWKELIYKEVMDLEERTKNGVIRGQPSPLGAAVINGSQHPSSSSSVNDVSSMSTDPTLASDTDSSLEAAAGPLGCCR

T1 sequence (Q16539 2-360): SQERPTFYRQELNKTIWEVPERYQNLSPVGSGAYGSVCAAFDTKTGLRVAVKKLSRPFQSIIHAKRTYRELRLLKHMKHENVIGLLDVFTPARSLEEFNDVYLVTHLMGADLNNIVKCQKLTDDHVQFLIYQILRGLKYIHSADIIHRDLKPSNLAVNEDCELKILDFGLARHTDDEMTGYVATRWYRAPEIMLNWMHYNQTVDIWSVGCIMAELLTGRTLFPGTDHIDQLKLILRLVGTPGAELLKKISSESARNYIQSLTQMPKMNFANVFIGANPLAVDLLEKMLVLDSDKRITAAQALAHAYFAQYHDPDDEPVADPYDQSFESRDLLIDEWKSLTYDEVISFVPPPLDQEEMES

IC50 (p38α): 0.223 mM | IC50 (JNK1): 3.92 mM
Compound: O=C1c2c(O)cccc2C([C@@H]2O[C@H](CO)[C@@H](O)[C@H](O)[C@H]2O)c2cc(CO)cc(O)c21 (some centres unmarked) [aloin]
